# How the values were obtained:
# [1] = Cytotoxicity against HDF cells assessed as cell viability at 100 uM by MTT assay; format: cell-based; conditions: human, read-out: Activity
# [2] = target: T1, Prostaglandin G/H synthase 1 (Ovis aries, UniProt P05979); assay: Inhibition of ovine COX1
# T1 sequence (P05979 whole entry): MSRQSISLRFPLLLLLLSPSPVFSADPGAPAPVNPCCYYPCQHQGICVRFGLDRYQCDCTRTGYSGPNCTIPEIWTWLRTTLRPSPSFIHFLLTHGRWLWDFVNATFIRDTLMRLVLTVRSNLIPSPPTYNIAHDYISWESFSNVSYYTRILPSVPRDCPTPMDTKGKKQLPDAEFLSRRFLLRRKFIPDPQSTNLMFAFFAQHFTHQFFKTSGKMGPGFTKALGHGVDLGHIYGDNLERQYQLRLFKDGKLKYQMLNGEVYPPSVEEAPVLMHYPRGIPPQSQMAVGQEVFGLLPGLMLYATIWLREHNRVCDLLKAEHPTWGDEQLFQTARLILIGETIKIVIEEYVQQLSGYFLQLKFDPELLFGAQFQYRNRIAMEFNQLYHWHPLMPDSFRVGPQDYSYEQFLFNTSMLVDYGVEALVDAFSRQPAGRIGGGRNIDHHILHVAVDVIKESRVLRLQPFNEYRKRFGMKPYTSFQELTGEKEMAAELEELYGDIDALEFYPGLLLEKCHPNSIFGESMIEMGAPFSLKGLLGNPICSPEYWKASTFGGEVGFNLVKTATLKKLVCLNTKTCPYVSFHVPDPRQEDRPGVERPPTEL
smiles,measurement,setting,value
NC(=S)N/N=C\c1cn(-c2ccccc2)nc1-c1ccc(Cl)cc1,viability at 100 µM,[1],71.7%
same,IC50,[2],56.3 µM
NC(=S)N/N=C\c1cn(-c2ccccc2)nc1-c1ccc(Br)cc1,viability at 100 µM,[1],57.6%
same,IC50,[2],60.3 µM
COc1ccc(-c2nn(-c3ccccc3)cc2/C=N\NC(N)=S)cc1,viability at 100 µM,[1],63.4%
same,IC50,[2],62.3 µM
S=C(N/N=C\c1cn(-c2ccccc2)nc1-c1ccc(Cl)cc1)Nc1ccccc1,viability at 100 µM,[1],61.7%
same,IC50,[2],64.5 µM
S=C(N/N=C\c1cn(-c2ccccc2)nc1-c1ccc(Br)cc1)Nc1ccccc1,viability at 100 µM,[1],58.7%
same,IC50,[2],65.7 µM
COc1ccc(-c2nn(-c3ccccc3)cc2/C=N\NC(=S)Nc2ccccc2)cc1,viability at 100 µM,[1],52.6%
same,IC50,[2],42.3 µM
O=C1CSC(N/N=C\c2cn(-c3ccccc3)nc2-c2ccc(Cl)cc2)=N1,viability at 100 µM,[1],58.7%
same,IC50,[2],60.7 µM
O=C1CSC(N/N=C\c2cn(-c3ccccc3)nc2-c2ccc(Br)cc2)=N1,viability at 100 µM,[1],55.6%
same,IC50,[2],66.3 µM
COc1ccc(-c2nn(-c3ccccc3)cc2/C=N\NC2=NC(=O)CS2)cc1,viability at 100 µM,[1],59.7%
same,IC50,[2],71.3 µM
O=C1CS/C(=N/N=C\c2cn(-c3ccccc3)nc2-c2ccc(Cl)cc2)N1c1ccccc1,viability at 100 µM,[1],60.7%
same,IC50,[2],62.3 µM
O=C1CS/C(=N/N=C\c2cn(-c3ccccc3)nc2-c2ccc(Br)cc2)N1c1ccccc1,viability at 100 µM,[1],57.4%
same,IC50,[2],60.5 µM
COc1ccc(-c2nn(-c3ccccc3)cc2/C=N\N=C2\SCC(=O)N2c2ccccc2)cc1,viability at 100 µM,[1],63.4%
same,IC50,[2],62.3 µM
CC(=O)NC1=NN(C(C)=O)C(c2cn(-c3ccccc3)nc2-c2ccc(Cl)cc2)S1 (stereo unspecified),viability at 100 µM,[1],57.7%
same,IC50,[2],70.3 µM
CC(=O)NC1=NN(C(C)=O)C(c2cn(-c3ccccc3)nc2-c2ccc(Br)cc2)S1 (stereo unspecified),viability at 100 µM,[1],51.6%
same,IC50,[2],64.7 µM
COc1ccc(-c2nn(-c3ccccc3)cc2C2SC(NC(C)=O)=NN2C(C)=O)cc1 (stereo unspecified),viability at 100 µM,[1],56.7%
same,IC50,[2],80.3 µM
CC(=O)N(C1=NN(C(C)=O)C(c2cn(-c3ccccc3)nc2-c2ccc(Cl)cc2)S1)c1ccccc1 (stereo unspecified),viability at 100 µM,[1],61.7%
same,IC50,[2],70.3 µM
CC(=O)N(C1=NN(C(C)=O)C(c2cn(-c3ccccc3)nc2-c2ccc(Br)cc2)S1)c1ccccc1 (stereo unspecified),viability at 100 µM,[1],51.4%
same,IC50,[2],72.7 µM
COc1ccc(-c2nn(-c3ccccc3)cc2C2SC(N(C(C)=O)c3ccccc3)=NN2C(C)=O)cc1 (stereo unspecified),viability at 100 µM,[1],61.4%
same,IC50,[2],64.7 µM
